The text below walks through data of ChEMBL document CHEMBL1149520, “Cyclopentane-based human NK1 antagonists. Part 1: discovery and initial SAR” (Bioorg Med Chem Lett, 2006).

In brackets after ≈: the same amount, converted by molar mass.

In one data set the target is Substance-P receptor (Homo sapiens, UniProt P25103). Kind of data set: biochemical.
The next data set can be described thus: physchem. The settings on record: sodium acetate/acetic acid buffer, pH 5.
The nature of data set [1]: Solubility in potassium hydrogen phosphate buffer at pH 5. The class given is physicochemical.
The nature of data set [2]: Dissociation constant, pKa of the compound. The class given is physicochemical.
A further data set is filed under the species Cavia porcellus. Kind of data set: animal or person. The settings on record: Plasma, po, read-out: Inhibition.
Data set [3] is described as follows: Bioavailability in orally dosed dog. The class given is ADME, organism-based, Canis lupus familiaris. The following applies: in vivo, po.
Data set [4] can be described thus: Bioavailability in orally dosed rat. The class given is ADME, organism-based. The following applies: in vivo, po.

Sequence of Substance-P receptor (P25103 whole entry): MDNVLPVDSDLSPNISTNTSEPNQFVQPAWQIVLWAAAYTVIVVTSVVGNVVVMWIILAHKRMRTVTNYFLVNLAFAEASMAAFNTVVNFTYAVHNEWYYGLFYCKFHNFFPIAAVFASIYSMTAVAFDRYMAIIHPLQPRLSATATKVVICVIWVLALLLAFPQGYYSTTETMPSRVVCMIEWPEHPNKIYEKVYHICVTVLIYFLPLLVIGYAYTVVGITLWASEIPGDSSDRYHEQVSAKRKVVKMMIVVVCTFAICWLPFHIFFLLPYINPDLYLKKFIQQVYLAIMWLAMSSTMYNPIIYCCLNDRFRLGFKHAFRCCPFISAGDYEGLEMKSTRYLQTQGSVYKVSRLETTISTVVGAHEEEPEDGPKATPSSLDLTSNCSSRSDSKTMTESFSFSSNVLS

In the case of `O=C(N[C@@H]1CC[C@H](OCc2cc(C(F)(F)F)cc(C(F)(F)F)c2)[C@H]1c1ccccc1)OCc1ccccc1` (racemic), the IC50 against Substance-P receptor was 40 nM.
`CN(Cc1n[nH]c(=O)[nH]1)C[C@H]1CC[C@H](OCc2cc(C(F)(F)F)cc(C(F)(F)F)c2)[C@@H]1c1ccccc1` (racemic) had an IC50 against Substance-P receptor of 4.7 nM. The solubility in the data set “physchem” was determined as 80 µg/mL (≈ 151 µM).
The compound `FC(F)(F)c1cc(CO[C@H]2CC[C@@H](CN3CCCCC3)[C@@H]2c2ccccc2)cc(C(F)(F)F)c1` (racemic) gave a 50% inhibitory concentration (IC50) on Substance-P receptor of 5 nM.
The same measure, in the same setting: the value for `CN[C@H]1CC[C@H](OCc2cc(C(F)(F)F)cc(C(F)(F)F)c2)[C@@H]1c1ccccc1` (racemic) was 7.2 nM.
Still for that read-out and setting: the value for `CN(C)C(=O)N(C)[C@@H]1CC[C@H](OCc2cc(C(F)(F)F)cc(C(F)(F)F)c2)[C@H]1c1ccccc1` (racemic) was 16 nM; that for `N[C@H]1CC[C@@H](OCc2cc(C(F)(F)F)cc(C(F)(F)F)c2)[C@@H]1c1ccccc1` (relative stereo) was 100 nM.
Compound `O=C1CC[C@@H](CN[C@@H]2CC[C@H](OCc3cc(C(F)(F)F)cc(C(F)(F)F)c3)[C@H]2c2ccccc2)N1` displayed an IC50 at Substance-P receptor of 1.5 nM. The solubility in “physchem” amounted to 4000 µg/mL (≈ 7990 µM).
`NC(=O)CNC[C@@H]1CC[C@H](OCc2cc(C(F)(F)F)cc(C(F)(F)F)c2)[C@H]1c1ccccc1` (racemic): the IC50 at Substance-P receptor amounted to 1.9 nM. The compound further had a solubility in “physchem” of 590 µg/mL (≈ 1240 µM).
`O=C(N[C@H]1CC[C@H](OCc2cc(C(F)(F)F)cc(C(F)(F)F)c2)[C@@H]1c1ccccc1)OCc1ccccc1` (racemic) showed a 50% inhibitory concentration (IC50) against Substance-P receptor of 300 nM.
On the same count and under the same terms, then `N[C@@H]1CC[C@H](OCc2cc(C(F)(F)F)cc(C(F)(F)F)c2)[C@H]1c1ccccc1` (racemic), with 5.7 nM.
At Substance-P receptor, `CN(CC[C@@H]1CC[C@H](OCc2cc(C(F)(F)F)cc(C(F)(F)F)c2)[C@H]1c1ccccc1)Cc1n[nH]c(=O)[nH]1` (racemic) registered an IC50 of 4.9 nM. Besides, the solubility in the data set “physchem” came out at 10 µg/mL (≈ 18.4 µM).
Turning to `O=C(O)[C@@H]1CC[C@H](OCc2cc(C(F)(F)F)cc(C(F)(F)F)c2)[C@H]1c1ccccc1` (racemic), the 50% inhibitory concentration (IC50) at Substance-P receptor was found to be 67 nM.
Compound `NC(=O)N[C@@H]1CC[C@H](OCc2cc(C(F)(F)F)cc(C(F)(F)F)c2)[C@H]1c1ccccc1` (racemic) came in with a half-inhibitory concentration (IC50) on Substance-P receptor of 3.5 nM.
Still for that read-out and setting: then `N[C@H]1CC[C@H](OCc2cc(C(F)(F)F)cc(C(F)(F)F)c2)[C@@H]1c1ccccc1` (racemic), with 7.9 nM.
Turning to `O=c1[nH]nc(CN2CCO[C@H](OCc3cc(C(F)(F)F)cc(C(F)(F)F)c3)[C@@H]2c2ccccc2)[nH]1`, the solubility in data set [1] is 3 µg/mL (≈ 5.97 µM). In addition, in data set [2], the pKa was under 3.5.
`CNC(=O)N[C@@H]1CC[C@H](OCc2cc(C(F)(F)F)cc(C(F)(F)F)c2)[C@H]1c1ccccc1` (racemic): half-maximal inhibition at Substance-P receptor (IC50) was put at 2.7 nM.
With `N[C@@H]1CC[C@H](OCc2cc(C(F)(F)F)cc(C(F)(F)F)c2)[C@H]1c1ccccc1` (relative stereo), it took 2.3 nM to reach half-maximal inhibition at Substance-P receptor (IC50).
On the same count and under the same terms, the value for `CN(CC(N)=O)[C@H]1CC[C@H](OCc2cc(C(F)(F)F)cc(C(F)(F)F)c2)[C@@H]1c1ccccc1` (racemic) was 2.1 nM.
On the same count and under the same terms, then `NC(=O)CN[C@H]1CC[C@@H](OCc2cc(C(F)(F)F)cc(C(F)(F)F)c2)[C@@H]1c1ccccc1` (relative stereo), with 45 nM.
`CN[C@@H]1CC[C@H](OCc2cc(C(F)(F)F)cc(C(F)(F)F)c2)[C@H]1c1ccccc1` (racemic): the IC50 at Substance-P receptor stood at 0.83 nM.
Same read-out and setting: then `COC(=O)N[C@H]1CC[C@H](OCc2cc(C(F)(F)F)cc(C(F)(F)F)c2)[C@@H]1c1ccccc1` (racemic), with 5.3 nM; and `COC(=O)N(C)[C@@H]1CC[C@H](OCc2cc(C(F)(F)F)cc(C(F)(F)F)c2)[C@H]1c1ccccc1` (racemic), with 6.2 nM.
For the compound `NC(=O)CN[C@@H]1CC[C@H](OCc2cc(C(F)(F)F)cc(C(F)(F)F)c2)[C@H]1c1ccccc1` (racemic), the inhibition in vivo at 1 mg/kg in the data set filed under Cavia porcellus turned out to be 60%. Moreover, the IC50 against Substance-P receptor turned out to be 1.3 nM. In “physchem”, this compound registered a solubility of 1100 µg/mL (≈ 2390 µM). Also, in data set [2], the pKa is 6.6.
On Substance-P receptor, `O=C1CC[C@@H](CN[C@H]2CC[C@@H](OCc3cc(C(F)(F)F)cc(C(F)(F)F)c3)[C@@H]2c2ccccc2)N1` returned an IC50 of 260 nM.
Consider `CN(CC(N)=O)C[C@@H]1CC[C@H](OCc2cc(C(F)(F)F)cc(C(F)(F)F)c2)[C@H]1c1ccccc1` (racemic), for which the IC50 against Substance-P receptor turned out to be 1.9 nM. The solubility in “physchem” is 300 µg/mL (≈ 614 µM).
On to `NC(=O)CN[C@@H]1CC[C@H](OCc2cc(C(F)(F)F)cc(C(F)(F)F)c2)[C@H]1c1ccccc1` (relative stereo), for which, at Substance-P receptor, it took 0.95 nM to reach half-maximal inhibition (IC50).
Still for that read-out and setting: then `O=c1[nH]cc(CN[C@@H]2CC[C@H](OCc3cc(C(F)(F)F)cc(C(F)(F)F)c3)[C@H]2c2ccccc2)[nH]1` (racemic), with 5.2 nM; and `CN(Cc1nnc[nH]1)[C@@H]1CC[C@H](OCc2cc(C(F)(F)F)cc(C(F)(F)F)c2)[C@H]1c1ccccc1` (racemic), with 1.1 nM; and `NC(=O)[C@@H]1CC[C@H](OCc2cc(C(F)(F)F)cc(C(F)(F)F)c2)[C@H]1c1ccccc1` (racemic), with 7.2 nM.
`NC(=O)CN[C@H]1CC[C@H](OCc2cc(C(F)(F)F)cc(C(F)(F)F)c2)[C@@H]1c1ccccc1` (racemic): the IC50 on Substance-P receptor is 8.3 nM. Further, the solubility in the data set “physchem” amounted to 800 µg/mL (≈ 1740 µM).
In the case of `FC(F)(F)c1cc(CO[C@H]2CC[C@@H](CN3CCOCC3)[C@@H]2c2ccccc2)cc(C(F)(F)F)c1` (racemic), 8.2 nM corresponded to half-maximal inhibition against Substance-P receptor (IC50).
In data set [1], `C[C@@H](O[C@H]1OCCN(Cc2n[nH]c(=O)[nH]2)[C@H]1c1ccc(F)cc1)c1cc(C(F)(F)F)cc(C(F)(F)F)c1` [APREPITANT] registered a solubility of under 0.5 µg/mL. For the same compound, the bioavailability in data set [3] amounted to 40%; in data set [4], 53%. In data set [2], this compound returned a pKa of under 3.5.
For `COC(=O)N[C@@H]1CC[C@H](OCc2cc(C(F)(F)F)cc(C(F)(F)F)c2)[C@H]1c1ccccc1` (racemic), the inhibition in vivo at 1 mg/kg in the data set filed under Cavia porcellus is under 25%. The midpoint of inhibition at Substance-P receptor, the IC50, lay at 0.89 nM.
Compound `CN(C)C(=O)N[C@@H]1CC[C@H](OCc2cc(C(F)(F)F)cc(C(F)(F)F)c2)[C@H]1c1ccccc1` (racemic) came in with an IC50 at Substance-P receptor of 5 nM.
Turning to `CN(C[C@@H]1CCC(=O)N1)[C@@H]1CC[C@H](OCc2cc(C(F)(F)F)cc(C(F)(F)F)c2)[C@H]1c1ccccc1`, on Substance-P receptor, the IC50 is 0.81 nM. The same compound displayed a solubility in “physchem” of 510 µg/mL (≈ 991 µM).
The like results for `CN(Cc1n[nH]c(=O)[nH]1)C[C@@H]1CC[C@H](OCc2cc(C(F)(F)F)cc(C(F)(F)F)c2)[C@H]1c1ccccc1` (racemic) were, in that order, 2 nM and 200 µg/mL (≈ 378 µM).
Consider `CN(CC(N)=O)[C@@H]1CC[C@H](OCc2cc(C(F)(F)F)cc(C(F)(F)F)c2)[C@H]1c1ccccc1` (racemic), for which, at Substance-P receptor, the IC50 worked out at 2.7 nM. Moreover, the solubility in the data set “physchem” stood at 16 µg/mL (≈ 33.7 µM). For the same compound, in data set [2], the pKa came out at 5.8.
On Substance-P receptor, `NC[C@@H]1CC[C@H](OCc2cc(C(F)(F)F)cc(C(F)(F)F)c2)[C@H]1c1ccccc1` (racemic) had an IC50 of 2.7 nM.
Same read-out and setting: the value for `OC[C@@H]1CC[C@H](OCc2cc(C(F)(F)F)cc(C(F)(F)F)c2)[C@H]1c1ccccc1` (racemic) was 0.77 nM.
The same measure, in the same setting: the value for `CNC[C@@H]1CC[C@H](OCc2cc(C(F)(F)F)cc(C(F)(F)F)c2)[C@H]1c1ccccc1` (racemic) was 1.9 nM; that for `NC(=O)N[C@H]1CC[C@H](OCc2cc(C(F)(F)F)cc(C(F)(F)F)c2)[C@@H]1c1ccccc1` (racemic) was 9.8 nM.

By IC50 is commonly meant the concentration that gives 50% inhibition. A word on the solubility: it is how much of the substance goes into solution per volume. Read a high solubility as much dissolved substance. Broadly, the pKa is the negative logarithm of the acid dissociation constant. A higher pKa goes with a group that holds its proton tightly. One may read the bioavailability as the share of a dose that reaches the circulation, judged against a reference dose that is usually intravenous. A low value points to poor availability.
